Test results taken from patent publication US10864200B2, “Stable formulations for immune-modulatory macrolides” (Roche Diagnostics Operations, Inc., priority 2017, dated 2020).
“And” between values parts separate entries of the source, which are not always exact repeats. Equal values may be shown once. Read-outs that look alike come from different tables or passages of the source.

Tests used:
[1] = Real-time stability (RTS) of sirolimus and tacrolimus in chlorhexidine-containing cell-free blood hemolysate, LC-MS/MS; format: physicochemical; conditions: for real-time stability demonstrated: 6° C., chlorhexidine-containing hemolysate formulation; for area-ratio (analyte / internal standard): hemolysate with 0.024% chlorhexidine
Protocol: (§1) A formulation was prepared by firstly hemolyzing human whole blood: Human EDTA whole blood of 5 donors was hemolyzed by a freeze-and-thaw cycle. After freezing the whole blood sample from each donor separately at −80° C. and thawing at room temperature, all samples were combined, mixed on a roller for at least 1 hour and then centrifuged for 15 minutes at 22° C. and 12000 g in order to remove fragments of hemolyzed blood cells potentially present. After the centrifugation, the upper section (approximately ⅘ of the whole volume) of the hemolyzed blood was used as hemolysate. Finally, chlorhexidine was added to the hemolysate to a concentration of 0.024%.
For checking the RTS, the chlorhexidine-containing hemolysate was spiked from a highly concentrated stock solution of sirolimus to approx. 100 ng/mL or tacrolimus to approx. 135 ng/mL, and aliquots thereof were stressed at 6° C. for 3 months respectively in brown LC-MS vials. The stressed samples and the corresponding non-stressed samples (T0 samples) were stored at 6° C. for a couple of days until their LC-MS/MS analysis.
LC-MS/MS method: Before performing the LC-MS/MS analysis the samples were prepared by addition of 10 μL structurally similar internal standards (everolimus D4 2×C13 for sirolimus and non-labeled ascomycin for tacrolimus) to 100 μL of the sample to be analyzed, followed by a protein precipitation by addition of 150 μL acetonitrile. The mixture was incubated at 4° C. for 60 minutes and then centrifuged (18000 g, 4° C., 30 min). The supernatant was 1:4 diluted with a solvent mixture of 30% acetonitrile and 70% deionized water and then injected in the LC-MS/MS. The recovery value was the found area-ratio at time point (T1) compared to the non-stressed area-ratio at start time point (T0) as reference (see table 5). Formulations with recoveries >90% were classified as stable and with 80-90% as acceptable.
LC-MS/MS conditions were • Solvents: A: 5 mM NH4Acetate in H2O+0.1% Formic acid/ • B: Methanol+0.1% Formic acid • Gradient: according to Table 4. • AB Sciex Triple Quad 6500+/Agilent HPLC 1290-Infinity II • ESI source • Column: Phenomenex—Kinetex F5, 2.6 μm particle, 50 mm×2.1 mm • Temperature: 40° C. (Column) and 8° C. (Autosampler) • Injection volume 20 μL • MRM Transition at DP: 70 V EP: 10 V CXP: 12 V • Detection: everolimus: Q1: 975.7 Da Q3: 908.7 Da CE 25 V • everolimus d4,2×C13: Q1: 981.7 Da Q3: 914.7 Da CE 25 V • sirolimus: Q1: 931.7 Da Q3: 864.6 Da CE 25 V • tacrolimus: Q1: 821.5 Da Q3: 576.4 Da CE 33 V • ascomycin: Q1: 809.5 Da Q3: 564.4 Da CE 33 V

[2] = cited from earlier work
[3] = known from literature; cited from earlier work
[4] = Real-time stability (RTS) of everolimus in chlorhexidine-containing cell-free blood hemolysate, LC-MS/MS; format: physicochemical; conditions: for everolimus concentration: hemolysate with 0.024% chlorhexidine
Protocol: as §1
For checking the RTS, the chlorhexidine-containing hemolysate was spiked from a highly concentrated stock solution of everolimus to approx. 100 ng/ml, and aliquots thereof were stressed at 6° C. for 3, 6, 9, 12, and 15 months respectively in brown LC-MS vials. The stressed samples and the corresponding non-stressed samples (T0 samples) were analyzed by LC-MS/MS measurements.
LC-MS/MS method: Before performing the LC-MS/MS analysis, the samples were treated by addition of 10 μL isotope-labeled internal standards (d4/2×C13—everolimus) to 100 μL of the sample to be analyzed, followed by a protein precipitation by addition of 150 μL acetonitrile. The mixture was incubated at 4° C. for 60 minutes and then centrifuged (18000 g, 4° C., 30 min). The supernatant was diluted 1:4 with a solvent mixture of 30% acetonitrile and 70% water and then injected in the LC-MS/MS. The samples were quantified by an external calibration curve. The calibrator was a set of solutions with different concentrations of analyte and they were run through the same preparation workflow, with the same internal standard as the samples. For the calculation of the concentration in a sample, the response factors (ratio of analyte peak area and internal standard peak area) of the sample were referenced with the linear function of the calibration curve (ratio by concentration). The recovery value was the concentration measured at time point (Ti) compared to the non-stressed concentration at start time point (T0) as reference (see Table 3). Formulations with recoveries >90% were classified as stable.
LC-MS/MS conditions were • Solvents: A: 0.5 mM NH4Acetate in H2O/B: Methanol • Gradient: according to Table 2. • AB Sciex 6500 QTRAP/Agilent HPLC 1290-Infinity • APCI source negative mode • Column: Phenomenex—Kinetex F5, 2.6 μm particle, 150 mm×2.1 mm • Temperature: 50° C. (Column) and 8° C. (Autosampler) • Injection volume 20 μL • Calibration: external, with 6 concentration levels covering 0-500 ng/mL • MRM Transition at DP: −76 V EP: −10 V CE: −30 V CXP: −24 V • Detection: everolimus: Q1: 956.6 Da Q3: 590.2 Da; everolimus d4,2×C13: Q1: 962.2 Da Q3: 590.2 Da.

[5] = Real-time stability study of everolimus in hemolysate with NaN3 as additive; format: physicochemical; conditions: hemolysate with 0.009% sodium azide

## CO[C@H]1C[C@@H]2CC[C@@H](C)[C@@](O)(O2)C(=O)C(=O)N2CCCC[C@H]2C(=O)O[C@H]([C@H](C)C[C@@H]2CC[C@@H](O)[C@H](OC)C2)CC(=O)[C@H](C)/C=C(\C)[C@@H](O)[C@@H](OC)C(=O)[C@H](C)C[C@H](C)/C=C/C=C/C=C/1C [sirolimus, (1R,9S,12S,15R,16E,18R,19R,21R,23S,24E,26E,28E,30S,32S,35R)-1,18-dihydroxy-12-{(2R)-1-[(1S,3R,4R)-4-hydroxy-3-methoxycyclohexyl]-2-propanyl}-19,30-dimethoxy-15,17,21,23,29,35-hexamethyl-11,36-dioxa-4-azatricyclo hexatriaconta-16,24,26,28-tetraene-2,3,10,14,20-pentone]
[1]
  real-time stability demonstrated: 3 months
[2]; 2-8° C., 4° C. (dark & in light)
  Literature-provided stability of blood samples: 8d/4 °C
[2]; 2-8° C., 4° C.
  Literature-provided stability of blood samples: 7d/4 °C ^11
[2]; <0° C., −20 to −80° C.
  Literature-provided stability of blood samples: 1a/−20 to −80 °C ^3
[2]; <0° C., −20° C.
  Literature-provided stability of blood samples: 3m/−20 °C ^1 and 6m/−20 °C ^11
[2]; >RT, 30° C. (dark & in light)
  Literature-provided stability of blood samples: 8d/30 °C
[2]; >RT, 30° C. (in light)
  Literature-provided stability of blood samples: 7d/30 °C (in light) ^1
[2]; RT
  Literature-provided stability of blood samples: 1d/RT ^11 and 1d/RT ^3
[3]
  aqueous solubility: poor

## CO[C@H]1C[C@@H]2CC[C@@H](C)[C@@](O)(O2)C(=O)C(=O)N2CCCC[C@H]2C(=O)O[C@H]([C@H](C)C[C@@H]2CC[C@@H](OCCO)[C@H](OC)C2)CC(=O)[C@H](C)/C=C(\C)[C@@H](O)[C@@H](OC)C(=O)[C@H](C)C[C@H](C)/C=C/C=C/C=C/1C [everolimus, (1R,9S,12S,15R,16E,18R,19R,21R,23S,24E,26E,28E,30S,32S,35R)-1,18-dihydroxy-12-[(2R)-1-[(1S,3R,4R)-4-(2-hydroxyethoxy)-3-methoxycyclohexyl]propan-2-yl]-19,30-dimethoxy-15,17,21,23,29,35-hexamethyl-11,36-dioxa-4-azatricyclo hexatriaconta-16,24,26,28-tetraene-2,3,10,14,20-pentone]
[4]; 3 months at 6° C.
  everolimus concentration: 71.1 ng/mL
[4]; 6 months at 6° C.
  everolimus concentration: 81.8 ng/mL
[4]; 6° C., chlorhexidine-containing hemolysate formulation
  real-time stability demonstrated: 15 months
[4]; 9 months at 6° C.
  everolimus concentration: 74.6 ng/mL
[4]; 12 months at 6° C.
  everolimus concentration: 92.0 ng/mL
[4]; 15 months at 6° C.
  everolimus concentration: 77.8 ng/mL
[4]; T0 (non-stressed), spiked approx. 100 ng/ml
  everolimus concentration: 74.8 ng/mL
[5]; 3 months at 6° C.
  measured value for stressed everolimus (unit not given): 0.732
[5]; T0
  measured value for stressed everolimus (unit not given): 0.781
[2]; 2-8° C., 4° C.
  Literature-provided stability of blood samples: 7d/4 °C ^11
[2]; >RT, 30° C. (in light)
  Literature-provided stability of blood samples: 7d/30 °C (in light) ^1
[2]; RT (in light)
  Literature-provided stability of blood samples: 6h/RT (in light) ^4
[3]
  aqueous solubility: poor

## C=CC[C@@H]1/C=C(\C)C[C@H](C)C[C@H](OC)[C@H]2O[C@@](O)(C(=O)C(=O)N3CCCC[C@H]3C(=O)O[C@H](/C(C)=C/[C@@H]3CC[C@@H](O)[C@H](OC)C3)[C@H](C)[C@@H](O)CC1=O)[C@H](C)C[C@@H]2OC [tacrolimus, (1R,9S,12S,13R,14S,17R,18E,21S,23S,24R,25S,27R)-1,14-dihydroxy-12-[(1E)-1-[(1R,3R,4R)-4-hydroxy-3-methoxycyclohexyl]prop-1-en-2-yl]-23,25-dimethoxy-13,19,21,27-tetramethyl-17-(prop-2-en-1-yl)-11,28-dioxa-4-azatricyclo octacos-18-ene-2,3,10,16-tetrone]
[1]; 3 months at 6° C.
  Recovery value (area-ratio at T1 compared to T0): 98%
  area-ratio (analyte / internal standard): 0.972
[1]
  real-time stability demonstrated: 3 months
[1]; T0 (non-stressed), sirolimus approx. 100 ng/mL, tacrolimus approx. 135 ng/mL
  area-ratio (analyte / internal standard): 0.99
[1]; T0 (reference)
  Recovery value (area-ratio at T1 compared to T0): 100%
[2]; 1d/RT
  Literature-provided stability of blood samples (in words): not stable ^9
[2]; <0° C., −70° C.
  Literature-provided stability of blood samples: 1a/−70 °C ^8
[2]; >RT, 37° C.
  Literature-provided stability of blood samples: 3d/37 °C ^7
[2]; RT
  Literature-provided stability of blood samples: 14d/RT ^8 and 7d/RT ^7
[3]
  aqueous solubility: poor
